Measured values as given in PubChem BioAssay (NCI).
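Dose response: 5 concentrations. Exposure: 48 h. Format: 96-well plates. Endpoint: linear interpolation; highest concentration if not reached. At the TGI there is no net growth.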

Key:
Assay in all cases: NCI tumour cell line growth inhibition, 48 h
SNB-78 CNS = test system: SNB-78 CNS
LXFL 529 NSCLC = test system: LXFL 529 NSCLC
RXF-631 renal = test system: RXF-631 renal
M19-MEL melanoma = test system: M19-MEL melanoma
DLD-1 colon = test system: DLD-1 colon
DMS 273 small cell lung = test system: DMS 273 small cell lung
HOP-18 NSCLC = test system: HOP-18 NSCLC

Structure (SMILES) | TGI (SNB-78 CNS) [µM] | TGI (LXFL 529 NSCLC) [µM] | TGI (RXF-631 renal) [µM] | TGI (M19-MEL melanoma) [µM] | TGI (DLD-1 colon) [µM] | TGI (DMS 273 small cell lung) [µM] | TGI (HOP-18 NSCLC) [µM]
COc1ccccc1NC(=O)C(=O)C(C(=O)c1ccccc1F)C1OC(=O)c2ccccc21 (centres undefined) | > 100 | > 100 | 67.8 | 61.6 | > 100 | > 100 | –
NC(=O)CCC(N=c1c2ccccc2n(O)c2ccccc12)C(=O)O (centres undefined) | > 100 | > 100 | – | > 100 | > 100 | > 100 | 98.4
CC1=C(CO)C(=O)OC(C(C)C2CCC3C4CC5OC56C(O)C(N5CC5)=CC(=O)C6(C)C4CCC23C)C1 (centres undefined) | 46.9 | 15.9 | 34.5 | 23.5 | 17.6 | 17.9 | –
Clc1ccc2c(NCCCCCCNc3ccnc4cc(Cl)ccc34)ccnc2c1 | 3.87 | 7.3 | 6.02 | 8.83 | 10.3 | 11.7 | –
